The values that follow are results of earlier work, collected in article PMC9095539 (Clinical Pharmacokinetics, 2022).

Data set [1] has as its system CYP2B6.
Data set [2] has as its system CYP2C19.
Data set [3] deals with CYP3A4.
Data set [4] relates to CYP2C9.
The conditions of data set [5]: BCS; no reference given.

SMILES strings stand for the structures.

On to `CCCS(=O)(=O)N[C@H]1C[C@@H](N(C)c2ncnc3[nH]ccc23)C1` [abrocitinib, N-{cis-3-[Methyl(7H-pyrrolo[2,3-d]pyrimidin-4-yl)amino]cyclobutyl}propane-1-sulfo namide], for which the “Eliminated unchanged in urine” value was 1.0–4.4%. For the same molecule, under “once-daily dosing”, the “Time to steady-state plasma concentrations” value was at most 4 days. For the same molecule, the “Time to reach maximum levels” value (oral, healthy individuals) is at most 1.5 h. Moreover, the “Contribution to hepatic metabolism” value in data set [1] is on record as 7%. Besides, the “Contribution to hepatic metabolism” value in data set [2] was 53%. The “Contribution to hepatic metabolism” value in data set [3] was 11%. Besides, in data set [4], the “Contribution to hepatic metabolism” value was 30%. Further, the Permeability entry in data set [5] is reported as “high”.
